Experimental data published in ChEMBL document CHEMBL1201862, “PubChem BioAssay data set” (2004).
Activity calls are given as the source filed them.

Tests used:
Beta Lactamase [1] = molecular target: T1, Beta Lactamase (Pseudomonas aeruginosa, UniProt Q932Y6); assay: concentration-dependent VIM-2 enzyme inhibition – biochemical, epi-absorbance readout, selective inhibitors, dose response (AID 1919)
Beta-lactamase [2] = molecular target: T2, Beta-lactamase (Pseudomonas aeruginosa, UniProt Q79MP6); assay: inhibition of IMP-1 beta-lactamase activity – biochemical, epi-absorbance, selectivity assay for VIM-2 inhibitor project, dose response (AID 1920)
T2 sequence (Q79MP6 whole entry): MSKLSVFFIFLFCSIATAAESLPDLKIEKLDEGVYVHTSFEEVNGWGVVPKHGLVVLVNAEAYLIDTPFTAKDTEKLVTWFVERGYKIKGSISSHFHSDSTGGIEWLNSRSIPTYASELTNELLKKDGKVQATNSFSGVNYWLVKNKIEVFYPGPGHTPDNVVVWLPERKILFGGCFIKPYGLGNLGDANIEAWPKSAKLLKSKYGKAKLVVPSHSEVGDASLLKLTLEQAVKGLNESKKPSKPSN

Beta-lactamase [3] = molecular target: T2, Beta-lactamase; assay: […] counterscreen for selective VIM-2 inhibitors: dose response biochemical high throughput screening assay to identify inhibitors of IMP-1 metallo-beta-lactamase.
Beta Lactamase [4] = molecular target: T1, Beta Lactamase; assay: VIM-2 CCF2 hydrolysis inhibition, assay artifact filter – biochemical, FRET readout, CCF2 substrate, artefact control for selective VIM-2 inhibitor project, dose response (AID 1926)
Beta-lactamase [5] = molecular target: Beta-lactamase (Salmonella choleraesuis (strain SC-B67), UniProt Q5J463); assay: Epi-absorbance-based counterscreen for selective VIM-2 inhibitors: dose response biochemical high throughput screening assay to identify inhibitors of TEM-1 serine-beta-lactamase.
Sequence of Beta-lactamase (Salmonella choleraesuis (strain SC-B67), UniProt Q5J463) (Q5J463 whole entry): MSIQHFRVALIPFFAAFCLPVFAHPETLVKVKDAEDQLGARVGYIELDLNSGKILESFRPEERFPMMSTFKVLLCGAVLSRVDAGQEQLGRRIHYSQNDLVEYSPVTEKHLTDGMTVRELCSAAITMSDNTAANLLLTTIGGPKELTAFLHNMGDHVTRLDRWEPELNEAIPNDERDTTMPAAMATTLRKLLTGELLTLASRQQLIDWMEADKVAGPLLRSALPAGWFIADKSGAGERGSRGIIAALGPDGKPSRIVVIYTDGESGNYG

Protein Wnt-3a = Protein Wnt-3a (Mus musculus, UniProt P27467); assay: SAR analysis of small molecule antagonists of Gli-SUFU in a Wnt3a luminescent reporter assay.; assay type: functional
Sequence of Protein Wnt-3a (P27467 whole entry): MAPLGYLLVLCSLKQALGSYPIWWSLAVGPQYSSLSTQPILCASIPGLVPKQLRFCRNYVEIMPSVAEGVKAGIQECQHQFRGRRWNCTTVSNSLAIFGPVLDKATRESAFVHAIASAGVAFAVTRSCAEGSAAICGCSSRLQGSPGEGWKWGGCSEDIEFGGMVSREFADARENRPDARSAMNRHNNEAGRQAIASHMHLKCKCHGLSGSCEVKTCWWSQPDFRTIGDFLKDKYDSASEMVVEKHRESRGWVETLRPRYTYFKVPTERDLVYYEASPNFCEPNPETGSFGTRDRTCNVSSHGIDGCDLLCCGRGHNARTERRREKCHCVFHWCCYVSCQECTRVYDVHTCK

[6] = OVCAR8 cell viability loss – plate reader, dry powder samples, PAX8 project, dose response (AID 743197); assay type: functional, cell-based; details: OVCAR-8
Paired box protein Pax-8 = Paired box protein Pax-8 (Homo sapiens, UniProt Q06710); assay: PAX8 transcriptional activity inhibition in RMG-I – RMG-I cells, luciferase, cherry-pick, dose response (AID 687027); assay type: functional, cell-based;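 also: luciferase reporter driven by Pax8 target thyroperoxidase promoter measured by SteadyGlo luminescence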
[7] = viability loss in LCL cells – cell-based, plate reader, dry powder, set 2, cytotoxicity control, dose response (AID 624367); assay type: functional
[8] = OVCAR-3 cell viability loss – plate reader, dry powder samples, PAX8 inhibitor project, dose response (AID 743044); assay type: functional, cell-based
Galanin receptor type 3 = Galanin receptor type 3 (Homo sapiens, UniProt O60755); assay: Fluorescence-based cell-based primary high throughput dose response assay to identify antagonists of the Galanin Receptor 3 (GalR3).; assay type: functional
Sequence of Galanin receptor type 3 (O60755 whole entry): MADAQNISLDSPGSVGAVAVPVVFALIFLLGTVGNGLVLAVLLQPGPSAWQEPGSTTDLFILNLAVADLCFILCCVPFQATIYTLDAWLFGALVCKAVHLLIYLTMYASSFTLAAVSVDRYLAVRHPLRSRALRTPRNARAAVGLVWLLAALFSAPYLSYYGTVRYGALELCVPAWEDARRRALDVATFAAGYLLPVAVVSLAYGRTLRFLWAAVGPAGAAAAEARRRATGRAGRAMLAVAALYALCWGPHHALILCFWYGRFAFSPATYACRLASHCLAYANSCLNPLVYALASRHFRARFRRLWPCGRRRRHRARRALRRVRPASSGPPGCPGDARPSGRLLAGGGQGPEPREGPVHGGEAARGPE

cells [9] = assay type: functional, cell-based; details: HEK-CNG
A549 = assay: viability loss in A549 cells – cell-based, plate reader, cherry-pick samples, cytotoxicity control, dose response (AID 687028); assay type: functional; details: Homo sapiens
[10] = toxicity toward HepG2 liver cells – cell-based, plate reader, cherry-pick, antagonist series, cytotoxicity control, dose response (AID 743416); assay type: functional
[11] = blockers of bursicon-stimulated LGR2 cAMP reporter – cell-based, HEK293, CRE-luciferase reporter, cherry pick, set 2, dose response (AID 743343); assay type: functional;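 also: transfected cells were stimulated with diluted bursicon conditioned medium after compound addition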
[12] = viability loss in HEK293 cells – cell-based, plate reader, cherry-picked samples, cytotoxicity control, dose response (AID 743446); assay type: functional
[13] = molecular target: Photoreceptor-specific nuclear receptor (Homo sapiens, UniProt Q9Y5X4); assay type: functional, cell-based;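 also: CHO-S cells with Gal4-NCOR and VP16-NR2E3 two-hybrid luciferase reporter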
Sequence of Photoreceptor-specific nuclear receptor (Q9Y5X4 whole entry, the tested form may be a part): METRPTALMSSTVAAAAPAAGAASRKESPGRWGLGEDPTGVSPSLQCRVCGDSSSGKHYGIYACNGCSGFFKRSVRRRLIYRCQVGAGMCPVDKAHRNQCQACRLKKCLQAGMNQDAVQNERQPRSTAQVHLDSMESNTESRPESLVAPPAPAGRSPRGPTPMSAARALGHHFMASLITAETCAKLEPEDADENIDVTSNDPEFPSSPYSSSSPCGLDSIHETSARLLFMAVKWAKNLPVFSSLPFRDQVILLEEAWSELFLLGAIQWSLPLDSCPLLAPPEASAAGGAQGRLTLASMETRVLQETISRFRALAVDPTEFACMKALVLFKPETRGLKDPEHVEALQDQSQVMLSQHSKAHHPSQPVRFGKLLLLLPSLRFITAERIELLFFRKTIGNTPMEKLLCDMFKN

[14] = blockade of melanocortin 4 receptor signaling – cell-based, plate reader, cherry pick, counter-screen for LGR2 antagonist project, dose response (AID 743444); assay type: functional;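 also: transfected HEK 293 cells stimulated with alpha-MSH peptide; potency of inhibitors of the alpha-MSH evoked signal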
[15] = A549 cell cytotoxicity, dose response, cytotoxicity control, plate reader, cherry-pick, antagonist series (AID 743412); assay type: functional, cell-based
[16] = molecular target: 5-hydroxytryptamine receptor 2A (Mus musculus, UniProt P35363); assay type: functional, cell-based;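 also: CHO-K1 cells with tagged receptor and beta-arrestin; agonist potency measured as compound-induced activation of the receptor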
Sequence of 5-hydroxytryptamine receptor 2A (P35363 whole entry): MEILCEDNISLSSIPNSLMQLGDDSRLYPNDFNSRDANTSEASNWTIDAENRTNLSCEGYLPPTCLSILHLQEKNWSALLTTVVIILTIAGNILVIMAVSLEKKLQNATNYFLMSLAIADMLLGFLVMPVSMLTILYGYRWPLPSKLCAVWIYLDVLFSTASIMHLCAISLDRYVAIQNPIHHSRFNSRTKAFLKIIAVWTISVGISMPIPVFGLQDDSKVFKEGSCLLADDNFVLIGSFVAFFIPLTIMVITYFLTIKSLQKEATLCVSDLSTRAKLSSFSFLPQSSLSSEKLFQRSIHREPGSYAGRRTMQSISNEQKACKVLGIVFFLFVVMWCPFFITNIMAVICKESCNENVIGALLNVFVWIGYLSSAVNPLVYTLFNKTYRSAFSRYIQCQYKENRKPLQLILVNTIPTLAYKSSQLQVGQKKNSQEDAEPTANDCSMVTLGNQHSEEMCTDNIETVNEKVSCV

Mu-type opioid receptor = Mu-type opioid receptor (Homo sapiens, UniProt P35372); assay type: functional, cell-based;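 also: U2OS cells with beta-arrestin recruitment to OPRM1 by beta-gal complementation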
Sequence of Mu-type opioid receptor (P35372 whole entry): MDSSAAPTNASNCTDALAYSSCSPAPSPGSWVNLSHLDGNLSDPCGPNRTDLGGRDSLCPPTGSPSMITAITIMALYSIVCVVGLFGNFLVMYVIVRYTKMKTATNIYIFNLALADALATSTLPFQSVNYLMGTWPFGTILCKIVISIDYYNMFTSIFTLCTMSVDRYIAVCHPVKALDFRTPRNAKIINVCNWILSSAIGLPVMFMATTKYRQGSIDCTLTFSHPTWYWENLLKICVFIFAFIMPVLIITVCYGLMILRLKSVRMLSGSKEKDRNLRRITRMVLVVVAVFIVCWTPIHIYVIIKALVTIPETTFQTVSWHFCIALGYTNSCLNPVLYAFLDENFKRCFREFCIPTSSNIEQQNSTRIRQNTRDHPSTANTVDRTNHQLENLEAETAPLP

[17] = Luminescence Cell-Based Dose Response HTS to Identify Activators of Luciferase Translation or Activity in H4 […] Cells. [Related pubchem assays: 1829 (Project Summary), 1814 (Primary HTS)]; assay type: functional
Prothrombin = Prothrombin (Homo sapiens, UniProt P00734); assay: Thrombin 1536 HTS Dose Response Confirmation. [Related pubchem assays: 1046 (Thrombin 1536 HTS; hits were confirmed in this assay)]; assay type: functional
[18] = Luminescence Cell-Based Dose Confirmation HTS to Identify Activators of 5'UTR Stem-Loop Driven Alpha-Synuclein mRNA Translation in H4 Neuroglioblastoma Cells. [Related pubchem assays: 1829 (Project Summary), 1814 (Primary HTS)]; assay type: functional
[19] = Counterscreen for activators of the function of SWI/SNF related, matrix associated, actin dependent regulator of chromatin, subfamily a, member 2 (SMARCA2, BRM): Luminescence-based cell-based high throughput dose response assay to identify non-selective compounds using the VP16 reporter assay.; assay type: functional
H4 = assay: Luminescence Cell-Based Dose Response HTS to Identify Activators of 5'UTR Stem-Loop Driven Prion Protein mRNA Translation in H4 Neuroglioblastoma Cells. [Related pubchem assays: 1829 (Project Summary), 1814 (Primary HTS)]; assay type: functional; details: Homo sapiens
[20] = molecular target: SWI/SNF-related matrix-associated actin-dependent regulator of chromatin subfamily A member 2 (Homo sapiens, UniProt P51531); assay: Luminescence-based cell-based high throughput dose response assay to identify activators of the function of SWI/SNF related, matrix associated, actin dependent regulator of chromatin, subfamily a, member 2 (SMARCA2, BRM).; assay type: functional
Sequence of SWI/SNF-related matrix-associated actin-dependent regulator of chromatin subfamily A member 2 (P51531 whole entry, the tested form may be a part): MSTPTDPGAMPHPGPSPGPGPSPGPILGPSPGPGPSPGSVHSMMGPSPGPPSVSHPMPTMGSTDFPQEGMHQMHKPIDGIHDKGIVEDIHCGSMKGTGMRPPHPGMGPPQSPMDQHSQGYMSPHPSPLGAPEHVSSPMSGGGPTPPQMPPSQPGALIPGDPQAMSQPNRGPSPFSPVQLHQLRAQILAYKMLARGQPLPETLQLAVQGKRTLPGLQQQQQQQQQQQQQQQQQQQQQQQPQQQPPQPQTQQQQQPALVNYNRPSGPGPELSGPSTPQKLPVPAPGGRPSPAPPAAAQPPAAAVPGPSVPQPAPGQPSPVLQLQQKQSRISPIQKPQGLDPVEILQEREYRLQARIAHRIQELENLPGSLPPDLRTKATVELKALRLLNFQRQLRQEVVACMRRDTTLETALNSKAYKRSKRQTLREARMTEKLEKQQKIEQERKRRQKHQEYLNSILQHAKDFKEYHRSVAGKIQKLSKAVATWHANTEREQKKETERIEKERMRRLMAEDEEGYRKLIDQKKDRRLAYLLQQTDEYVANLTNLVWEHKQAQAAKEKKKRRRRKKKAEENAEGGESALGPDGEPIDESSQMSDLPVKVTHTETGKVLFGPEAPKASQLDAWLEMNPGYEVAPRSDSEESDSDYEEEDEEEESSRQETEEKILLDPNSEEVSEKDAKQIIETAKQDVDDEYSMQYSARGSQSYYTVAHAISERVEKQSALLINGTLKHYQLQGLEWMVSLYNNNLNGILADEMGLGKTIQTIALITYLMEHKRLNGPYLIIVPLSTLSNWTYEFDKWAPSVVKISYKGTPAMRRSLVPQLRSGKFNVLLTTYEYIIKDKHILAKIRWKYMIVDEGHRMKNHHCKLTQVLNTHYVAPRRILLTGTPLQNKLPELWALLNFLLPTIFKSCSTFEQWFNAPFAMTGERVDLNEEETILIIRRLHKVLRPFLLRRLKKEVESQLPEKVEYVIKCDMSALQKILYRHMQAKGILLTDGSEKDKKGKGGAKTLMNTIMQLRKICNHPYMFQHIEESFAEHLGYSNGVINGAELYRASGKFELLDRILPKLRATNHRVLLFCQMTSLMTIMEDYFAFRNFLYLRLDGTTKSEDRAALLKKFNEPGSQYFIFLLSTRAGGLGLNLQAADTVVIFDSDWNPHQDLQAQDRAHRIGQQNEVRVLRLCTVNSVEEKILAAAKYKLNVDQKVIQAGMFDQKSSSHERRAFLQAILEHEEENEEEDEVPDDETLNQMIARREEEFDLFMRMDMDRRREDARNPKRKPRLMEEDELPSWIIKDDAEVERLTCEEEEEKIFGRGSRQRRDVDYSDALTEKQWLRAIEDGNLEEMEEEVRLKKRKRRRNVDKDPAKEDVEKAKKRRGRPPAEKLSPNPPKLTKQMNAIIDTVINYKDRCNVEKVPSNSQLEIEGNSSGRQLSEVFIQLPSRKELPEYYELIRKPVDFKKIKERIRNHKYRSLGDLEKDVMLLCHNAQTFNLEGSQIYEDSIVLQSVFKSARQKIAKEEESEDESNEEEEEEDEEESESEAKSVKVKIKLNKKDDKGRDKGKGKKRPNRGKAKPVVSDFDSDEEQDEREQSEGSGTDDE

[21] = viability loss in CEM21 cells – cell-based, CellTiter-Glo luminescence, cherry-picked, cytotoxicity control for viral fusion inhibitor project, dose response (AID 652042); assay type: functional;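 also: potency for signal decrease meaning cytotoxicity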
[22] = blockers of HIV-1 envelope-mediated cell-cell fusion – cherry-pick, dose response (AID 652057); assay type: functional, cell-based
[23] = HIV-1 AD8 envelope cell-cell fusion blockers – cherry-pick, dose response (AID 652062); assay type: functional, cell-based;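 also: luciferase signal from cell-cell fusion driven by HIV-1 clade B AD8 Env; potency is for inhibitors of fusion seen as a drop in luminescence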
[24] = molecular target: T3, Trace amine-associated receptor 1 (Homo sapiens, UniProt Q96RJ0); assay: Counterscreen for agonists of the human trace amine associated receptor 1 (hTAAR1): Fluorescence-based cell-based high throughput dose response assay to identify hTAAR1 agonist that also desensitize TAAR1 receptor response.; assay type: functional
T3 sequence (Q96RJ0 whole entry): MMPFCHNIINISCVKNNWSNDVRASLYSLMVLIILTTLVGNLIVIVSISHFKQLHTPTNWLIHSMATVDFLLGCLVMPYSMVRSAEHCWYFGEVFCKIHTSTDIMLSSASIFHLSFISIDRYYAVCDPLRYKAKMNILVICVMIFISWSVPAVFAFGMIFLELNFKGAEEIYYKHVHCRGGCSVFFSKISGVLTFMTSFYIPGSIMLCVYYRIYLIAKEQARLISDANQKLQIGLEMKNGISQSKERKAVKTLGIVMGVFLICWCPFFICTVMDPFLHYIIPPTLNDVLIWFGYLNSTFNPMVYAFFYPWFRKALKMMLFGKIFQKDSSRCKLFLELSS

[25] = molecular target: T3, Trace amine-associated receptor 1; assay: Fluorescence-based cell-based high throughput dose response assay to identify agonists of the human trace amine associated receptor 1 (TAAR1).; assay type: functional
cells [26] = assay type: functional, cell-based
cells [27] = assay type: functional, cell-based; remark: listed apart in the source
[28] = inhibitors of EBV LMP1 NF-kappaB signaling – cell-based, luciferase reporter, luminescence, dry powder, set 2, dose response (AID 624376); assay type: functional
[29] = cytotoxicity in HEK293 background cells – cell-based, dry powder, set 2, counter-screen for EBV LMP1 inhibitor project, dose response (AID 624374); assay type: functional
Streptokinase A = molecular target: T4, Streptokinase A (Streptococcus pyogenes serotype M1, UniProt P10520); assay: viability-normalized secreted streptokinase activity reduction – plasminogen activation absorbance, OD405, dose response (AID 1914); assay type: functional, Streptococcus pyogenes M1 GAS;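 also: secreted streptokinase activity via plasminogen activation per viability signal from cell pellet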
T4 sequence (P10520 whole entry): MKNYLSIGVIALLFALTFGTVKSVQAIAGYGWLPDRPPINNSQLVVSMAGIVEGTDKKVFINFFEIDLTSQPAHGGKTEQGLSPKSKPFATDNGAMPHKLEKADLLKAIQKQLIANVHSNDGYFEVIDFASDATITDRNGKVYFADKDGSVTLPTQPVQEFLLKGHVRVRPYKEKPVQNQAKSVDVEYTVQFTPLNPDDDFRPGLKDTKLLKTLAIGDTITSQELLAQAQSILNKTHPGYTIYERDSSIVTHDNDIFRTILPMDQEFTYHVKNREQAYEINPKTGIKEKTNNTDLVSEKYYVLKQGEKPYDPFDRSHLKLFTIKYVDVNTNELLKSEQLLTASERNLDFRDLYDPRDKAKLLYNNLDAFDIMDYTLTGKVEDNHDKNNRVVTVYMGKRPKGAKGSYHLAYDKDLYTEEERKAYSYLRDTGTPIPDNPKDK

[30] = system: Streptococcus sp. 'group A'; assay: Streptococcus pyogenes SK(-)GAS viability under kanamycin – luminescence, BacTiterGlo, confirmation, counter-screen for streptokinase expression inhibitor project, dose response (AID 1900); assay type: functional, organism-based
[31] = viability loss in HEK293T cells – cell-based, cherry-picks, cytotoxicity control for HIV Vif inhibitor project, dose response (AID 652208); assay type: functional
Streptococcus = assay: GAS UMAA2166 growth inhibition – luminescence, BacTiterGlo, counter-screen for streptokinase expression inhibitor project, dose response (AID 1915); assay type: functional, organism-based;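 also: potency for reduction of bacterial viability or growth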
[32] = molecular target: T5, Nuclear receptor subfamily 0 group B member 1 (Homo sapiens, UniProt P51843); assay type: functional, cell-based;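 also: HEK293T cells transfected with SF-1 and DAX-1 plus StAR promoter luciferase reporter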
T5 sequence (P51843 whole entry): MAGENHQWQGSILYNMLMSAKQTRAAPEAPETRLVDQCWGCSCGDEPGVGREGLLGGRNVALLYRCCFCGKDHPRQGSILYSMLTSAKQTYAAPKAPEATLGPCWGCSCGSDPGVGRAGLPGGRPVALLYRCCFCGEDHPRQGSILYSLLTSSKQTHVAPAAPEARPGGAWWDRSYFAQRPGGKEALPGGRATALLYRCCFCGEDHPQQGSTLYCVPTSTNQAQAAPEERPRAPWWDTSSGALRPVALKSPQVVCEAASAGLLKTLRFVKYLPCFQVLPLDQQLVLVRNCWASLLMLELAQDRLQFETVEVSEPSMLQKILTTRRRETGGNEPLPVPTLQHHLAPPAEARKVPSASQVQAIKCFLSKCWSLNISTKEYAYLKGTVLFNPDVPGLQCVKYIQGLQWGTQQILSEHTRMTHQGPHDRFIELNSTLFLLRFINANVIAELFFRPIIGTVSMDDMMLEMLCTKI

cells [33] = assay type: functional, cell-based; remark: listed apart in the source

T1 sequence (Q932Y6 whole entry): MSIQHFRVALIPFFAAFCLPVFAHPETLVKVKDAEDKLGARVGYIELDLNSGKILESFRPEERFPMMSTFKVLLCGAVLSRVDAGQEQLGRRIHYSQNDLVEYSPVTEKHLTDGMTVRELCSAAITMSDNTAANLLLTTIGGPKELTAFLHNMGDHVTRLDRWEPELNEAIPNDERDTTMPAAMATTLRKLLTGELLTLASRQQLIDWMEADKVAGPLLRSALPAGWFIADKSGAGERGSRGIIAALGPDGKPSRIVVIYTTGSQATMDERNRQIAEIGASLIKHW

COc1ccc(OC)c(C2C(C(=O)c3ccco3)=C(O)C(=O)N2Cc2cccnc2)c1 (stereo not given)
IC50 (Beta Lactamase [1]): 1.94 µM (active) | IC50 (Beta-lactamase [2]): > 59.6 µM (inactive) | IC50 (Beta-lactamase [3]): > 59.6 µM (inactive) | IC50 (Beta Lactamase [4]): 0.7 µM (active) | IC50 (Beta-lactamase [5]): > 59.6 µM (inactive)

O=C(Nc1cc(N2CCCC2)ncn1)c1ccccc1
IC50 (Protein Wnt-3a): > 21.8 µM (inactive)

O=C(Nc1ccc(C(F)(F)F)cc1)Nc1ccc2c(c1)[C@H]1C[C@@H](CC(=O)N3CCc4ccccc4C3)O[C@@H](CO)[C@H]1O2
AC50 [6]: > 70 µM (inactive) | AC50 (Paired box protein Pax-8): 10.7 µM (active) | AbsAC35 [7]: 44.28 µM | AC50 [8]: 63.1 µM (active)

CCCCCC(O)C=CC1C(O)CC(O)C1CC=CCCCC(=O)O (stereo not given)
IC50 (Galanin receptor type 3): > 0.123 µM (active) | EC50 (cells [9]): > 29.9 µM (inactive)

Cc1cnc(NC(=O)C2CC(=O)N(c3cccc(Cl)c3)C2)s1 (stereo not given)
AC50 (A549): 14.8 µM (active) | AC50 [10]: 0.763 µM (active) | AC50 [11]: 4.8 µM (active) | AC50 [12]: > 52 µM (inactive) | IC50 [13]: 0.0757 µM (active) | AC50 [14]: 5.08 µM (active) | AC50 [15]: 4.65 µM (active)

Clc1ccccc1CN1CCN(c2ncccn2)CC1
EC50 [16]: 0.407 µM (active) | EC50 (Mu-type opioid receptor): 92.5 µM (inactive)

OCCCCCN=c1cc(-c2ccccc2)oc2ccc(Cl)cc12
EC50 [17]: 8.23 µM (active) | IC50 (Prothrombin): 3.04 µM (active) | EC50 [18]: 14.4 µM (active) | EC50 [19]: > 10.1 µM (inactive) | EC50 (H4): 15.2 µM (active) | EC50 [20]: > 10.1 µM (inactive)

COc1ccc2c3c([nH]c2c1)[C@H](CO)N(C(=O)Nc1cccc(F)c1)CC31CN(S(=O)(=O)c2cccc(C)c2)C1
AC50 [21]: 27.5 µM (active) | AC50 [22]: 27.7 µM (active) | AC50 [23]: 38.1 µM (active)

COc1cc(C)c(NC(=O)C(S)=NCCc2ccccc2)cc1C
IC50 [24]: 2.38 µM (active) | EC50 [25]: 0.766 µM (active) | IC50 (cells [26]): > 29.9 µM (inactive) | EC50 (cells [27]): > 29.9 µM (inactive)

C[C@H](CO)N1C[C@H](C)[C@@H](CN(C)S(=O)(=O)c2cccc(F)c2)Oc2ncc(C#CC3CCCCC3)cc2C1=O
AbsAC35 [28]: 44.29 µM | AbsAC35 [29]: 324.37 µM

O=C1Nc2ccccc2S/C1=C/Nc1cccc(Cl)c1
EC50 (Streptokinase A): > 150 µM (not active) | EC50 [30]: 17.9 µM (active) | AC50 [31]: > 52 µM (inactive) | EC50 [17]: 32.5 µM (active) | EC50 (Streptococcus): 6.87 µM (active) | EC50 [18]: > 120 µM (not active) | EC50 (H4): > 120 µM (not active)

CC(=O)c1sc(Nc2ccc(Oc3ccccc3)cc2)nc1C
IC50 [32]: > 67.6 µM (inactive) | IC50 (cells [33]): > 67.6 µM (inactive)
